Assay results taken from ChEMBL document CHEMBL2157956, “Antibacterial activity of substituted dibenzo[a,g]quinolizin-7-ium derivatives” (2012).
Converted amounts (≈) assume the structure as drawn. The source made the active and inactive calls. The calls are words filed in the database; no cut-off is given here.

Legend:
Enterococcus faecalis [1] = assay: Antibacterial activity against vancomycin-resistant Enterococcus faecalis ATCC 51575 by CLSI broth microdilution method; type: functional
Staphylococcus aureus [2] = assay: Antibacterial activity against methicillin-resistant Staphylococcus aureus ATCC 33591 by CLSI broth microdilution method; type: functional
Staphylococcus aureus [3] = assay: Antibacterial activity against methicillin-sensitive Staphylococcus aureus 8325-4 by CLSI broth microdilution method; type: functional
Enterococcus faecalis [4] = assay: Antibacterial activity against vancomycin-sensitive Enterococcus faecalis ATCC 19433 by CLSI broth microdilution method; type: functional
[5] = molecular target: T1, Cell division protein FtsZ (Staphylococcus aureus) (UniProt P0A031); assay: Induction of Staphylococcus aureus FtsZ self-polymerization assessed as increase in light scattering at 20 ug/mL by 90 deg angle light scattering assay; settings: TDE = time-dependent effect
T1 sequence (whole entry): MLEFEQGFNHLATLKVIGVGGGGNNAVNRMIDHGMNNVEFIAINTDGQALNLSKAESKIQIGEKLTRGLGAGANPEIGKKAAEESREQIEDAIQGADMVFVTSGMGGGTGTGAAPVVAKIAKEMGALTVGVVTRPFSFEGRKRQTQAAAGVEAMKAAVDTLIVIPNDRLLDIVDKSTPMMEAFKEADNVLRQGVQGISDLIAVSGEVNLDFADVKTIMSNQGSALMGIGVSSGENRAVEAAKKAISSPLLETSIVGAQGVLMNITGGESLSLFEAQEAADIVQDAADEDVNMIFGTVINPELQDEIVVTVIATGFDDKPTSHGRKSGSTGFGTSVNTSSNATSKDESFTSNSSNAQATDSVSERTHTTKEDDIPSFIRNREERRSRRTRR

[6] = molecular target: T1, Cell division protein FtsZ (Staphylococcus aureus); assay: Inhibition of Staphylococcus aureus FtsZ self-polymerization assessed as decrease in light scattering at 20 ug/mL by 90 deg angle light scattering assay; settings: TDE = time-dependent effect
[7] = molecular target: T1, Cell division protein FtsZ (Staphylococcus aureus); assay: Induction of Staphylococcus aureus FtsZ self-polymerization assessed as increase in light scattering at 20 ug/mL measured every 5 secs by 90 deg angle light scattering assay
[8] = molecular target: T1, Cell division protein FtsZ (Staphylococcus aureus); assay: Induction of Staphylococcus aureus FtsZ self-polymerization assessed as increase in light scattering at 10 ug/mL by 90 deg angle light scattering assay; settings: TDE = time-dependent effect

SMILES	MIC (Enterococcus faecalis [1])	MIC (Staphylococcus aureus [2])	MIC (Staphylococcus aureus [3])	MIC (Enterococcus faecalis [4])	Activity [5]	inhibition [6]	Activity [7]	Activity [8]
COc1cc2cc3c4cc(-c5ccc(C)cc5)c(OC)cc4cc[n+]3cc2cc1OC.[Cl-]	> 64 µg/mL	8 µg/mL	2 µg/mL	16 µg/mL	–	–	–	–
CC(=O)OS(=O)(=O)[O-].COc1cc2cc3c4cc(-c5ccc(-c6ccccc6)cc5)c(OC)c(OC)c4cc[n+]3c(C)c2cc1OC	8 µg/mL	2 µg/mL	1 µg/mL	4 µg/mL	–	–	–	–
COc1cc2cc[n+]3cc4cc(OC)c(OC)c(-c5ccc(-c6ccccc6)cc5)c4cc3c2cc1OC.[Cl-]	32 µg/mL	4 µg/mL	2 µg/mL	8 µg/mL	–	–	–	–
COc1cc2cc3c4cc(-c5ccccc5)c(OC)c(OC)c4cc[n+]3cc2cc1OC.[Cl-]	32 µg/mL	8 µg/mL	4 µg/mL	16 µg/mL	–	–	–	–
CC(=O)OS(=O)(=O)[O-].COc1cc2cc3c4cc(-c5ccc(C(C)(C)C)cc5)c(OC)c(OC)c4cc[n+]3c(C)c2cc1OC	4 µg/mL	2 µg/mL	1 µg/mL	4 µg/mL	–	–	–	–
COc1cc2cc3c4cc(-c5ccc(C(C)(C)C)cc5)c(OC)c(OC)c4cc[n+]3cc2cc1OC.[Cl-]	8 µg/mL	4 µg/mL	4 µg/mL	4 µg/mL	–	–	–	–
CCC[C@@H]1C[C@@H](C(=O)N[C@@H]([C@H]2O[C@H](SC)[C@H](O)[C@@H](O)[C@H]2O)[C@H](C)Cl)N(C)C1 [CLINDAMYCIN]	> 64 µg/mL	> 64 µg/mL	0.03 µg/mL (≈ 0.0706 µM)	2 µg/mL (≈ 4.71 µM)	–	–	–	–
COc1cc2cc3c4cc(-c5ccccc5)c(OC)cc4cc[n+]3cc2cc1OC.[Cl-]	64 µg/mL	32 µg/mL	8 µg/mL	32 µg/mL	–	–	–	–
CC(=O)OS(=O)(=O)[O-].COc1cc2cc3c4cc(-c5ccc(C)cc5)c(OC)cc4cc[n+]3c(C)c2cc1OC	> 64 µg/mL	8 µg/mL	4 µg/mL	8 µg/mL	–	–	–	–
CN(C)[C@@H]1C(O)=C(C(N)=O)C(=O)[C@@]2(O)C(O)=C3C(=O)c4c(O)cccc4[C@@](C)(O)[C@H]3C[C@@H]12 [TETRACYCLINE]	> 64 µg/mL	64 µg/mL (≈ 144 µM)	0.06 µg/mL (≈ 0.135 µM)	0.5 µg/mL (≈ 1.13 µM)	–	–	–	–
COc1cc2cc3c4cc(-c5ccc(-c6ccccc6)cc5)c(OC)c(OC)c4cc[n+]3cc2cc1OC.[Cl-]	4 µg/mL	2 µg/mL	2 µg/mL	8 µg/mL	–	–	–	–
CC(=O)OS(=O)(=O)[O-].COc1cc2cc[n+]3c(C)c4cc(OC)c(OC)c(-c5ccc(-c6ccccc6)cc5)c4cc3c2cc1OC	32 µg/mL	4 µg/mL	1 µg/mL	4 µg/mL	tde	tde	–	–
CC(=O)OS(=O)(=O)[O-].COc1cc2cc3c4cc(-c5cccc6ccccc56)c(OC)c(OC)c4cc[n+]3c(C)c2cc1OC	8 µg/mL	2 µg/mL	1 µg/mL	4 µg/mL	–	–	–	–
CC(=O)OS(=O)(=O)[O-].COc1cc2c(C)[n+]3ccc4c(OC)c(OC)ccc4c3cc2c(-c2ccc(-c3ccccc3)cc2)c1OC	16 µg/mL	4 µg/mL	1 µg/mL	16 µg/mL	–	–	–	–
CC(=O)OS(=O)(=O)[O-].COc1cc2cc3c4cc(-c5ccccc5)c(OC)c(OC)c4cc[n+]3c(C)c2cc1OC	16 µg/mL	8 µg/mL	2 µg/mL	8 µg/mL	–	–	–	–
Cc1onc(-c2ccccc2)c1C(=O)N[C@@H]1C(=O)N2[C@@H]1SC(C)(C)[C@@H]2C(=O)O [OXACILLIN]	> 64 µg/mL	> 64 µg/mL	0.06 µg/mL (≈ 0.149 µM)	8 µg/mL (≈ 19.9 µM)	–	–	inactive	–
COc1cc2cc3c4cc(-c5cccc6ccccc56)c(OC)c(OC)c4cc[n+]3cc2cc1OC.[Cl-]	8 µg/mL	2 µg/mL	4 µg/mL	8 µg/mL	–	–	–	–
CC(=O)OS(=O)(=O)[O-].COc1cc2cc3c4cc(-c5ccccc5)c(OC)cc4cc[n+]3c(C)c2cc1OC	> 64 µg/mL	> 64 µg/mL	8 µg/mL	> 64 µg/mL	–	–	–	–
CC[C@H]1OC(=O)[C@H](C)[C@@H](O[C@H]2C[C@@](C)(OC)[C@@H](O)[C@H](C)O2)[C@H](C)[C@@H](O[C@@H]2O[C@H](C)C[C@H](N(C)C)[C@H]2O)[C@](C)(O)C[C@@H](C)C(=O)[C@H](C)[C@@H](O)[C@]1(C)O [ERYTHROMYCIN]	> 64 µg/mL	> 64 µg/mL	0.13 µg/mL (≈ 0.177 µM)	1 µg/mL (≈ 1.36 µM)	–	–	–	–
COc1ccc2cc3[n+](cc2c1OC)CCc1cc2c(cc1-3)OCO2 [BERBERINE]	> 64 µg/mL	> 64 µg/mL	> 64 µg/mL	> 64 µg/mL	–	–	–	–
CN[C@H](CC(C)C)C(=O)N[C@H]1C(=O)N[C@@H](CC(N)=O)C(=O)N[C@H]2C(=O)N[C@H]3C(=O)N[C@H](C(=O)N[C@H](C(=O)O)c4cc(O)cc(O)c4-c4cc3ccc4O)[C@H](O)c3ccc(c(Cl)c3)Oc3cc2cc(c3O[C@@H]2O[C@H](CO)[C@@H](O)[C@H](O)[C@H]2O[C@H]2C[C@](C)(N)[C@H](O)[C@H](C)O2)Oc2ccc(cc2Cl)[C@H]1O [VANCOMYCIN]	> 64 µg/mL	–	–	1 µg/mL (≈ 0.69 µM)	–	–	–	–
COc1cc2c[n+]3ccc4c(OC)c(OC)ccc4c3cc2c(-c2ccc(-c3ccccc3)cc2)c1OC.[Cl-]	16 µg/mL	8 µg/mL	2 µg/mL	8 µg/mL	–	–	–	–
CC(C)C(=O)OS(=O)(=O)[O-].COc1cc2cc3c4cc(-c5ccc(-c6ccccc6)cc5)c(OC)c(OC)c4cc[n+]3c(C(C)C)c2cc1OC	2 µg/mL	0.5 µg/mL	0.5 µg/mL	2 µg/mL	tde	–	–	tde
